Activity calls are given as the source filed them. The rule behind the calls is not given here.
Experiments:
Assay type in all cases: functional, organism-based
Conditions in all cases: Cercopithecidae
Monkey [1] = assay: The compound was evaluated for the rating of psychotropic effects in rhesus monkey at a dose of 2 mg/Kg; value is (++) stupor, ataxia, suppression of motor activity, full ptosis
Monkey [2] = assay: The compound was evaluated for the rating of psychotropic effects in rhesus monkey at a dose of 0.5 mg/Kg; value is (+) drowsiness, decreased motor activity, occasional partial ptosis, occasional head drop
Monkey [3] = assay: The compound was evaluated for the rating of psychotropic effects in rhesus monkey at a dose of 1 mg/Kg; value is (++) stupor, ataxia, suppression of motor activity, full ptosis
Monkey [4] = assay: The compound was evaluated for the rating of psychotropic effects in rhesus monkey at a dose of 5 mg/Kg; value is (-) No change
Monkey [5] = assay: The compound was evaluated for the rating of psychotropic effects in rhesus monkey at a dose of 1 mg/Kg; value is (-) No change
Monkey [6] = assay: The compound was evaluated for the rating of psychotropic effects in rhesus monkey at a dose of 2 mg/Kg; value is (-) No change
Monkey [7] = assay: The compound was evaluated for the rating of psychotropic effects in rhesus monkey at a dose of 2 mg/Kg; value is (+) drowsiness, decreased motor activity, occasional partial ptosis, occasional head drop
Monkey [8] = assay: The compound was evaluated for the rating of psychotropic effects in rhesus monkey at a dose of 0.25 mg/Kg; value is (++) stupor, ataxia, suppression of motor activity, full ptosis
Monkey [9] = assay: The compound was evaluated for the rating of psychotropic effects in rhesus monkey at a dose of 0.05 mg/Kg; value is (-) No change
Monkey [10] = assay: The compound was evaluated for the rating of psychotropic effects in rhesus monkey at a dose of 0.1 mg/Kg; value is (++) stupor, ataxia, suppression of motor activity, full ptosis
Monkey [11] = assay: The compound was evaluated for the rating of psychotropic effects in rhesus monkey at a dose of 0.1 mg/Kg; value is (+/-) tranquility
Monkey [12] = assay: The compound was evaluated for the rating of psychotropic effects in rhesus monkey at a dose of 0.5 mg/Kg; value is (++) stupor, ataxia, suppression of motor activity, full ptosis
Monkey [13] = assay: The compound was evaluated for the rating of psychotropic effects in rhesus monkey at a dose of 5 mg/Kg; value is (+) drowsiness, decreased motor activity, occasional partial ptosis, occasional head drop
Monkey [14] = assay: The compound was evaluated for the rating of psychotropic effects in rhesus monkey at a dose of 0.25 mg/Kg; value is (-) No change

For CCCCCc1cc(O)c2c(c1)OC(C)(C)[C@@H]1CC[C@H](C)[C@H](O)C21 (stereo not given in full), which Activity (Monkey [1]) is on record?
The Activity was “drowsiness, decreased motor activity, occasional partial ptosis, occasional head drop”.

And the Activity (Monkey [2])?
Its Activity is “drowsiness, decreased motor activity, occasional partial ptosis, occasional head drop”.

And the Activity (Monkey [3])?
Its Activity is “drowsiness, decreased motor activity, occasional partial ptosis, occasional head drop”.

CCCCCc1cc(O)c2c(c1)OC(C)(C)[C@@H]1C[C@H](O)C(C)CC21 (stereo not given in full) was tested. Which Activity (Monkey [4]) did it give?
Its Activity is “inactive”.

And the Activity (Monkey [5])?
Its Activity is “inactive”.

And the Activity (Monkey [6])?
Its Activity is “inactive”.

Which results are given for CCCCCc1cc(OC(C)=O)c2c(c1)OC(C)(C)[C@@H]1CC[C@H](COC(C)=O)CC21 (stereo not given in full)?
Activity (Monkey [4]): inactive; Activity (Monkey [5]): inactive

How did the Activity (Monkey [2]) turn out when CCCCCc1cc(OC(C)=O)c2c(c1)OC(C)(C)[C@@H]1CCC(COC(C)=O)CC21 (stereo not given in full) was run?
The Activity was “drowsiness, decreased motor activity, occasional partial ptosis, occasional head drop”.

And the Activity (Monkey [3])?
The Activity was “drowsiness, decreased motor activity, occasional partial ptosis, occasional head drop”.

CCCCCc1cc(O)c2c(c1)OC(C)(C)[C@@H]1CC(O)[C@H](C)CC21 (stereo not given in full) was tested. Which Activity (Monkey [4]) did it give?
The Activity was “inactive”.

And the Activity (Monkey [5])?
Its Activity is “inactive”.

CCCCCc1cc(O)c2c(c1)OC(C)(C)[C@@H]1CC[C@H](C)CC21 (stereo not given in full) was tested. Which Activity (Monkey [5]) did it give?
The Activity was “inactive”.

And the Activity (Monkey [7])?
The Activity was “drowsiness, decreased motor activity, occasional partial ptosis, occasional head drop”.

CCCCCc1cc(O)c2c(c1)OC(C)(C)[C@@H]1CCC(C)=C[C@@H]21 was tested. Which Activity (Monkey [8]) did it give?
Its Activity is “Active”.

What about the Activity (Monkey [9]) of the same molecule?
Its Activity is “inactive”.

What about the Activity (Monkey [10]) of the same molecule?
The Activity was “Active”.

Which Activity (Monkey [11]) does the source give for CCCCCc1cc(O)c2c(c1)OC(C)(C)[C@@H]1CC=C(C)CC21 (stereo not given in full) here?
Its Activity is “inactive”.

What about the Activity (Monkey [8]) of the same molecule?
The Activity was “Active”.

What about the Activity (Monkey [12]) of the same molecule?
The Activity was “Active”.

With CCCCCc1cc(O)c2c(c1)OC(C)(C)[C@@H]1CC[C@@H](C)CC21 (stereo not given in full) as the molecule, how does the Activity (Monkey [11]) read?
The Activity was “+/-”.

What about the Activity (Monkey [12]) of the same molecule?
The Activity was “stupor,ataxia, suppression of motor activity, full ptosis”.

Which results are given for CCCCCc1cc(O)c2c(c1)OC(C)(C)[C@@H]1CC[C@H](C)C(O)C21 (stereo not given in full)?
Activity (Monkey [4]): inactive; Activity (Monkey [5]): inactive

With CCCCCc1cc(O)c2c(c1)OC(C)(C)[C@@H]1CCC(C)[C@H](O)C21 (stereo not given in full) as the molecule, how does the Activity (Monkey [13]) read?
Its Activity is “drowsiness, decreased motor activity, occasional partial ptosis, occasional head drop”.

And the Activity (Monkey [5])?
Its Activity is “inactive”.

What about the Activity (Monkey [6]) of the same molecule?
The Activity was “inactive”.

For CCCCCc1cc(O)c2c(c1)OC(C)(C)[C@@H]1C[C@H](O)[C@H](C)CC21 (stereo not given in full), which Activity (Monkey [14]) is on record?
Its Activity is “inactive”.

And the Activity (Monkey [2])?
Its Activity is “drowsiness, decreased motor activity, occasional partialptosis,occasional head drop”.

And the Activity (Monkey [3])?
The Activity was “drowsiness, decreased motor activity, occasional partialptosis,occasional head drop”.

Reference: ChEMBL document CHEMBL1121535, “Stereochemical requirements for cannabinoid activity” (J Med Chem, 1980)
